B1: keratinocyte growth factor (protein, listed as Homo sapiens)
chain: MHKWILTWILPTLLYRSCFHIICLVGTISLACNDMTPEQMATNVNCSSPERHTRSYDYMEGGDIRVRRLFCRTQWYLRIDKRGKVKGTQEMKNNYNIMEIRTVAVGIVAIKGVESEFYLAMNKEGKLYAKKECNEDCNFKELILENHYNTYASAKWTHNGGEMFVALNQKGIPVRGKKTKKEQKTAHFLPMAIT
notes: human recombinant KGF (Upstate Biotechnology)

What was measured:
[1] = test system: KGFR; experiment: KGFR mRNA expression by real-time PCR in MCF-7 cells; format: cell-based, human; details: E2 20 ng/ml, 24 h, normalised to 18s, FIG. 3B
Protocol: (§1) The oestrogen receptor α-positive MCF-7 human breast adenocarcinoma cell line, acquired from American Type Culture Collection (no. HTB-22, ATCC-LGC Promochem, Teddington, UK), was cultured in Dulbecco's modified eagle's medium (DMEM; Invitrogen, Karlsruhe, Germany), supplemented with 10% foetal bovine serum (FBS; Invitrogen) and antibiotics. Primary cultures of human oestrogen-sensitive keratinocytes (KCs) were established from 1 cm^2 full-thickness mucosal biopsy of the vaginal vestibule. Following enzymatic dissociation, the keratinocytes were seeded onto culture plates coated with collagen IV (10 mg/ml), as previously reported [Panici et al, 2007], and were maintained in basal medium of the keratinocytes (KBM, Lonza) supplemented with aliquots of KGM (Lonza), with medium change twice a week. […]
The cells were harvested and the total RNA was extracted with the use of TRIzol reagent (Invitrogen). cDNA was generated with oligo (dT) from 1 μg of RNA using the SuperScript III reverse transcriptase kit (Invitrogen). After reverse transcription, the abundance of KGFR in MCF-7 cells treated and untreated with E2 was quantified by Q-RT-PCR. […] Relative quantification was performed using mRNA 18s as an endogenous control. The data were expressed as a rise of mRNA of KGFR compared to the control.

[2] = test system: KGFR; experiment: KGFR protein expression by Western blot in MCF-7 cells; format: cell-based, human; details: E2 20 ng/ml, 24 h, FIG. 3A
Protocol: as §1
(§2) MCF-7 cells untreated or treated with KGF or E2 were lysed in RIPA buffer. […] The bound antibody was detected by enhanced chemiluminescence detection reagents (Pierce Biotechnology, Inc, Rockford, Ill., USA), according to manufacturer's instructions. […] Densitometric analysis was performed using Quantity One Program (Bio-Rad Laboratories srl, Segrate, MI, Italy).

[3] = Serum concentrations of E2 and KGF by ELISA in treated mice; format: in vivo, mouse; details: daily treatment for 60 days, ovariectomised mice, FIG. 7A
Protocol: The mouse strain CD1 was used in this study (Charles Rivers). The mice were held in a standard housing for laboratory animals with controlled lighting (12 h/day) and temperature (25±1° C.) and were provided with food and water ab libitum. All the experimental protocols concerning animals were in line with the Guidelines of Sapienza University for the care and use of laboratory animals and were approved by the Ethical Committee of the aforesaid institution. Forty female mice were subjected to an ovariectomy for the purpose of inducing vaginal atrophy and were administered a diet of Altromin C1000 without phytoestrogens (Altromin, Lage, Germany) for the duration of the experiments. After 30 days, the mice were treated locally, introducing daily into the vaginal canal 25 μl of hydrogel loaded with KGF (10 or 30 ng/day) or with E2 (30 ng/day or 1 μg/day). A control group was treated only with hydrogel. After 60 days of treatment, the mice were killed and the vaginas were immediately explanted, fixed in formalin and processed for histological analysis.
The concentrations of E2 and KGF in the serum of treated mice were measured using an ELISA standard kit (R & D Systems, Minneapolis, Minn., USA). The sensitivity of the ELISA assay was ≧10 pg/mL. Standard preparations of E2 or KGF were used as internal controls. The values are presented as mean±standard deviation. […]

[4] = test system: ER alpha; experiment: Western blot of ER alpha phosphorylation (Ser118) in MCF-7 cells; format: cell-based, human; details: 20 ng/ml, FIG. 2D
Protocol: as §1, §2

| Molecule | KGFR mRNA expression compared to untreated cells [1] | KGFR protein level [2] | release into the bloodstream (serum levels by ELISA) after local vaginal treatment [3] | phosphorylation of ER alpha (Ser118) [4] |
| --- | --- | --- | --- | --- |
| C[C@]12CC[C@@H]3c4ccc(O)cc4CC[C@H]3[C@@H]1CC[C@@H]2O [E2, 17β-oestradiol] | 2.2 fold increase | a rise in the protein KGFR | reached the bloodstream even after treatment at low doses |  |
| B1 |  |  |  | able to induce, equally to E2, phosphorylation of ER alpha |
